The target in data set [1] is human Kv3.1 channels (hKv3.1) (Homo sapiens, UniProt P48547). The data set can be described thus: cell-based. The data set is classed as cell-based. Conditions: for Kv3.1 pEC50: HEK-hKv3.1 cells, -15 mV voltage step, normalised to 50 microM reference compound; for Kv3.1 max R %: maximum response relative to reference compound (50 microM). The text has this:
The ability of the compounds of the invention to modulate the voltage-gated potassium channel subtypes Kv3.3/Kv3.2/Kv3.1 may be determined using the following assay. Analogous methods may be used to investigate the ability of the compounds of the invention to modulate other channel subtypes.
To assess compound effects on human Kv3.1 channels (hKv3.1):
Human embryonic kidney (HEK)-hKv3.1 cell line is generated by transfecting HEK-293 cells with an expression vector with human Kv3.1 (NM_004976.4). Cells are cultured with MEM supplemented with 10% Heat-Inactivated FBS, 2 mM L-glutamine, 1% Penicillin-Streptomycin, and 0.6 mg/ml of Geneticin (G418). HEK-hKv3.1b cells were amplified in T175 cm2 flask at 37° C. with 5% CO2, using MEM amplification medium, containing the G418 selection antibiotic (0.6 mg/ml). Cells were detached every 3-4 days, using DPBS to wash twice the flask, then TrypLE to dislodge the cells, and re-plated at a density of 2-4×10^6 cells/flask.
The day of the experiment, cells are removed from the incubator and the culture medium removed. Cells are washed with 5 ml of Dulbecco's PBS (DPBS) calcium and magnesium free and detached by the addition of 3 ml Versene (Invitrogen, Italy) followed by a brief incubation at 37° C. for 5 minutes. The flask is tapped to dislodge cells and 10 ml of DPBS containing calcium and magnesium is added to prepare a cell suspension. The cell suspension is then placed into a 15 ml centrifuge tube and centrifuged for 2 min at 1200 rpm. After centrifugation, the supernatant is removed and the cell pellet re-suspended in 4 ml of DPBS containing calcium and magnesium using a 5 ml pipette to break up the pellet. Cell suspension volume is then corrected to give a cell concentration for the assay of approximately 3 million cells per ml.
Experiments are conducted at r.t. using IonWorks Quattro™ planar array electrophysiology technology (Molecular Devices Corp.) with PatchPlate™ PPC. Stimulation protocols and data acquisition are carried out using a microcomputer (Dell Pentium 4). Planar electrode hole resistances (Rp) are determined by applying a 10 mV voltage step across each well. These measurements are performed before cell addition. After cell addition and seal formation, a seal test is performed by applying a voltage step from −80 mV to −70 mV for 160 ms. Following this, amphotericin-B solution is added to the intracellular face of the electrode to achieve intracellular access. Cells are held at −70 mV. Leak subtraction is conducted in all experiments by applying 50 ms hyperpolarizing (10 mV) prepulses to evoke leak currents followed by a 20 ms period at the holding potential before test pulses.
For hKv3.2 and hKv3.1, assays from the holding potential of −70 mV, a first test pulse at −15 mV was applied for 100 ms and after 100 ms at −70 mV a second pulse at +40 mV was applied for 50 ms. Cells were then maintained for 100 ms at −100 mV and another pulse from −70 mV to +40 mV (duration 50 ms) was applied to clamp later the voltage at −40 mV during 200 ms
The intracellular solution contains the following (in mM): K-gluconate 100, KCl 54, MgCl2 3.2, HEPES 5, adjusted to pH 7.3 with KOH. Amphotericin-B solution is prepared as 50 mg/ml stock solution in DMSO and diluted to a final working concentration of 0.1 mg/ml in intracellular solution. The external solution is Dulbecco's Phosphate Buffered Saline (DPBS) and contained the following (in mM): CaCl2 0.90, KCl 2.67, KH2PO4 1.47, MgCl·6H2O 0.493, NaCl 136.9, Na3PO4 8.06, with a pH of 7.4.
Compounds of use in the invention (or reference compounds such as N-cyclohexyl-N-[(7,8-dimethyl-2-oxo-1,2-dihydro-3-quinolinyl)methyl]-N-phenylurea) are dissolved in dimethylsulfoxide (DMSO) at a stock concentration of 10 mM. These solutions are further diluted with DMSO using a Biomek FX (Beckman Coulter) in a 384 compound plate. Each dilution (1 μL) is transferred to another compound plate and external solution containing 0.05% pluronic acid (66 μL) is added. […]

Data set [2] can be described thus: Determination of brain tissue binding (equilibrium dialysis). The data set is classed as in vitro ADME. The conditions noted are these: Sprague Dawley, rat whole brain homogenate, 5 h at 37° C. The protocol: Sprague Dawley rat whole blood, collected on the week of the experiment using K3-EDTA as an anti-coagulant, is diluted with isotonic phosphate buffer 1:1 (v/v). Sprague Dawley rat whole brain, stored frozen at −20° C., is thawed and homogenised in artificial cerebrospinal fluid (CSF) 1:2 (w/v).
An appropriate amount of test compound is dissolved in DMSO to give a 10 millimolar solution. Further dilutions, to obtain a 166.7 micromolar working solution are then prepared using 50% acetonitrile in MilliQ water. This working solution is used to spike the blood to obtain a final concentration of 0.5 micromolar in whole blood. Similarly, the working solution is used to spike brain samples to obtain a final concentration of 5 micromolar in whole brain. From these spiked blood and brain preparations, control samples (n=3), are immediately extracted and used to calculate the initial recovery of the test items.
150 microL of compound-free buffer (isotonic phosphate buffer for blood or artificial CSF buffer for brain) is dispensed in one half-well and 150 microL of spiked matrix (blood or brain) is loaded in the other half-well, with the two halves separated by a semi-permeable membrane. After an equilibration period of 5 h at 37° C., 50 microL of dialysed matrix (blood or brain) is added to 50 microL of corresponding compound-free buffer, and vice-versa for buffer, such that the volume of buffer to matrix (blood or brain) remains the same. Samples are then extracted by protein precipitation with 300 microL of acetonitrile containing rolipram (control for positive ionization mode) or diclofenac (control for negative ionization mode) as internal standards and centrifuged for 10 min at 3000 rpm. Supernatants are collected (100 microL), diluted with 27% AcN in MilliQ water (200 microL) and then injected into an HPLC-MS/MS or UPLC-MS/MS system to determine the concentration of test compound present.
Blood and brain tissue binding are then determined using the following formulas: Afu=Buffer/Blood or Afu=CSF/Brain
Where Afu=apparent fraction unbound; Buffer=analyte/internal standard ratio determined in the buffer compartment; Blood=analyte/internal standard ratio determined in the blood compartment; Brain=analyte/internal standard ratio determined in the brain compartment.
[formula] where: fucr=Fraction unbound corrected; D=matrix dilution factor (D=2 for blood and D=3 for brain).
Then: % Binding=(1−fucr)×100 % Unbound=100−% Bound Brain/Blood Partition Ratio (Kbb) Determination
(In general: Equilibrium dialysis compares concentrations on both sides of a semipermeable membrane.)

Consider 20 compounds from patent publication US12358901B2, “KV3 modulators” (priority 2018, dated 2025).

For the compound `CC1(C)NC(=O)N(c2cnc(Oc3cccc4c3C(C)(C)CO4)cn2)C1=O` [Example 2, 3-[5-[(3,3-dimethyl-2H-benzofuran-4-yl)oxy]pyrazin-2-yl]-5,5-dimethyl-imidazolidine-2,4-dione], in data set [1], the “Kv3.1 pEC50” value was found to be 4.68 and the “Kv3.1 max R %” value was 149%.

Consider `CC[C@@]1(C)NC(=O)N(c2cnc(Oc3cccc4c3C3(CC3)CO4)cn2)C1=O` [Example 3, (5R)-5-ethyl-5-methyl-3-(5-spiro[2H-benzofuran-3,1′-cyclopropane]-4-yloxypyrazin-2-yl)imidazolidine-2,4-dione], for which, in data set [1], the “Kv3.1 pEC50” value is given as 5.15 and the “Kv3.1 max R %” value came to 205%.

For `CC1(C)NC(=O)N(c2cnc(Oc3cccc4c3C3(CC3)CO4)cn2)C1=O` [Example 4, 5,5-dimethyl-3-(5-spiro[2H-benzofuran-3,1′-cyclopropane]-4-yloxypyrazin-2-yl)imidazolidine-2,4-dione], in data set [1], the “Kv3.1 pEC50” value is 5.17 and the “Kv3.1 max R %” value was 170%.

As for `CC[C@@]1(C)NC(=O)N(c2cnc(Oc3ccc(C)c4c3C3(CC3)CO4)cn2)C1=O` [Example 5, (5R)-5-ethyl-5-methyl-3-[5-(7-methylspiro[2H-benzofuran-3,1′-cyclopropane]-4-yl)oxypyrazin-2-yl]imidazolidine-2,4-dione], in data set [1], the “Kv3.1 pEC50” value came out at 5.69 and the “Kv3.1 max R %” value was 149%.

Consider `CC[C@@]1(C)NC(=O)N(c2cnc(Oc3cccc4c3C(C)(C)CO4)cn2)C1=O` [Example 6, (5R)-3-[5-[(3,3-dimethyl-2H-benzofuran-4-yl)oxy]pyrazin-2-yl]-5-ethyl-5-methyl-imidazolidine-2,4-dione], for which, in data set [1], the “Kv3.1 pEC50” value is recorded as 4.75 and the “Kv3.1 max R %” value is 165%.

On to `Cc1ccc(Oc2cnc(N3C(=O)NC(C)(C)C3=O)cn2)c2c1OCC2(C)C` [Example 7, 5,5-dimethyl-3-[5-[(3,3,7-trimethyl-2H-benzofuran-4-yl)oxy]pyrazin-2-yl]imidazolidine-2,4-dione], for which, in data set [1], the “Kv3.1 pEC50” value is 5.12 and the “Kv3.1 max R %” value worked out at 134%.

Regarding `CC[C@@]1(C)NC(=O)N(c2cnc(Oc3ccc(C)c4c3C(C)(C)CO4)cn2)C1=O` [Example 8, (5R)-5-ethyl-5-methyl-3-[5-[(3,3,7-trimethyl-2H-benzofuran-4-yl)oxy]pyrazin-2-yl]imidazolidine-2,4-dione], in data set [1], the “Kv3.1 pEC50” value was found to be 5.29 and the “Kv3.1 max R %” value was determined as 119%.

Take `CC[C@H]1NC(=O)N(c2cnc(Oc3cccc4c3C(C)(C)CO4)cn2)C1=O` [Example 11, (5R)-3-[5-[(3,3-dimethyl-2H-benzofuran-4-yl)oxy]pyrazin-2-yl]-5-ethyl-imidazolidine-2,4-dione]: in data set [1], the “Kv3.1 pEC50” value stood at 4.89 and the “Kv3.1 max R %” value is 165%.

For `CC[C@H]1NC(=O)N(c2cnc(Oc3ccc(C)c4c3C(C)(C)CO4)cn2)C1=O` [Example 12, (5R)-5-ethyl-3-[5-[(3,3,7-trimethyl-2H-benzofuran-4-yl)oxy]pyrazin-2-yl]imidazolidine-2,4-dione], in data set [1], the “Kv3.1 pEC50” value amounted to 5.56 and the “Kv3.1 max R %” value is listed as 118%.

Consider `Cc1ccc(Oc2cnc(N3C(=O)NC4(CCC4)C3=O)cn2)c2c1OCC21CC1` [Example 13, 7-[5-(7-methylspiro[2H-benzofuran-3,1′-cyclopropane]-4-yl)oxypyrazin-2-yl]-5,7-diazaspiro[3.4]octane-6,8-dione], for which, in data set [1], the “Kv3.1 pEC50” value was found to be 5.09 and the “Kv3.1 max R %” value stood at 165%.

Turning to `Cc1ccc(Oc2cnc(N3C(=O)NC4(CC4)C3=O)cn2)c2c1OCC21CC1` [Example 14, 6-[5-(7-methylspiro[2H-benzofuran-3,1′-cyclopropane]-4-yl)oxypyrazin-2-yl]-4,6-diazaspiro[2.4]heptane-5,7-dione], in data set [1], the “Kv3.1 pEC50” value was 5.51 and the “Kv3.1 max R %” value amounted to 145%.

For the compound `Cc1ccc(Oc2ncc(N3C(=O)NC(C)(C)C3=O)cn2)cc1OC(F)(F)F` [RE1, reference compound], in data set [1], the “Kv3.1 pEC50” value amounted to 4.78 and the “Kv3.1 max R %” value is 105%.

With `Cc1ccc(Oc2ccc(N3C(=O)NC(C)(C)C3=O)cn2)cc1OC(F)(F)F` [RE2, reference compound], in data set [1], the “Kv3.1 pEC50” value came out at 5.25 and the “Kv3.1 max R %” value was found to be 118%.

In the case of `Cc1ccc(Oc2ccc(N3C(=O)NC(C)(C)C3=O)nc2)cc1OC(F)(F)F` [RE3, reference compound], in data set [1], the “Kv3.1 pEC50” value is on record as 4.89 and the “Kv3.1 max R %” value was 79%.

Take `Cc1ccc(Oc2cnc(N3C(=O)NC(C)(C)C3=O)cn2)cc1OC(F)(F)F` [RE4, reference compound]: in data set [1], the “Kv3.1 pEC50” value is recorded as less than 4.3 and the “Kv3.1 max R %” value is listed as 24%.

A word on the fraction unbound: it is free concentration divided by total concentration. Low values mean extensive binding, high ones weak binding. Compound `Cc1ccc(Oc2ccc(N3C(=O)NC(C)(C)C3=O)nc2)c2c1OCC21CC1` [RE7, reference compound] registered a fraction unbound at 5 h, 5 micromolar in data set [2] of 0.023. Further, in data set [1], the “Kv3.1 pEC50” value was 5.56 and the “Kv3.1 max R %” value is reported as 130%.

With `Cc1ccc(Oc2cnc(N3C(=O)NC(C)(C)C3=O)nc2)c2c1OCC21CC1` [RE8, reference compound], in data set [1], the “Kv3.1 pEC50” value was 4.98 and the “Kv3.1 max R %” value is recorded as 42%.

Regarding `Cc1ccc(Oc2ccc(N3C(=O)NC(C)(C)C3=O)nn2)c2c1OCC21CC1` [RE9, reference compound], in data set [1], the “Kv3.1 pEC50” value is less than 4.3 and the “Kv3.1 max R %” value is recorded as 16%.

`Cc1ccc(Oc2cncc(N3C(=O)NC(C)(C)C3=O)n2)c2c1OCC21CC1` [RE10, reference compound]: in data set [1], the “pEC50 and maxR in the Kv3.1 assay (in words)” value was “greatly reduced pEC50 and maxR”; the “Kv3.1 pEC50” value is listed as less than 4.3; the “Kv3.1 max R %” value is listed as 22%.

With `CC[C@H]1NC(=O)N(c2ccc(Oc3ccc(C)c4c3C3(CC3)CO4)cn2)C1=O` [RE12, reference compound], the fraction unbound at 5 h, 5 micromolar in data set [2] was found to be 0.019. In addition, in data set [1], the “Kv3.1 pEC50” value is listed as 5.6 and the “Kv3.1 max R %” value turned out to be 149%.
